Data from ChEMBL document CHEMBL4028802, “DILIrank: the largest reference drug list ranked by the risk for developing drug-induced liver injury in humans” (Drug Discov Today, 2016).
Starred links: 1 amine or outer side, 2 acyl side, 3 side chain; linkers in the order of their positions; H or OH if unused. Positions of bridges follow the written chain, without caps; N, C: chain ends. Non-standard residues stand in square brackets, D forms with d. Residues, ends and D or L forms follow the SMILES beside them. *: point of attachment. hTyr(3S-OH,4S-OH,3'-OSO3H) = N[C@H](C(=O)O)[C@H](O)[C@@H](O)c1ccc(O)c(OS(=O)(=O)O)c1; Orn(4R-OH,5R-OH) = O=C([C@H](C[C@@H](O)[C@@H](O)N[*:3])N[*:1])[*:2]; Pro(3S-OH,4S-Me) = C[C@H]1CN[C@H](C(=O)O)[C@H]1O; X1 = CCCCCOc1ccc(-c2cc(-c3ccc(C(=O)*)cc3)no2)cc1; Gln(3R-OH) = NC(=O)C[C@@H](O)[C@H](N)C(=O)O; Hyp = O=C(O)[C@@H]1C[C@@H](O)CN1

Columns and labels:
Homo sapiens [1] = species: Homo sapiens; assay: Liver toxicity in human assessed as induction of drug-induced liver injury by measuring verified drug-induced liver injury concern status
Homo sapiens [2] = species: Homo sapiens; assay: Liver toxicity in human assessed as induction of drug-induced liver injury by measuring severity class index
Wherever DILI severity class is given: key of the grades not given here.

Row | Molecule | DILI_Concern (Homo sapiens [1]) | DILI_severity_class (Homo sapiens [2])
1 | COc1c(C)c2c(c(O)c1C/C=C(\C)CCC(=O)OCCN1CCOCC1)C(=O)OC2 [MYCOPHENOLATE MOFETIL] | Less-Dili-Concern | 3
2 | CC(=O)OCC[N+](C)(C)C.[Cl-] [ACETYLCHOLINE CHLORIDE] | No-Dili-Concern | 0
3 | Cc1ncc2n1-c1ccc(Cl)cc1C(c1ccccc1F)=NC2 [MIDAZOLAM] | No-Dili-Concern | 0
4 | CCN(CC)CC#CCOC(=O)C(O)(c1ccccc1)C1CCCCC1 (configuration not stated) [OXYBUTYNIN] | No-Dili-Concern | 0
5 | CCN(CC)CCNC(=O)c1c(C)[nH]c(/C=C2\C(=O)Nc3ccc(F)cc32)c1C [SUNITINIB] | Most-Dili-Concern | 8
6 | O=C(O)CN(CCN(CC(=O)O)CC(=O)O)CCN(CC(=O)O)CC(=O)O [PENTETIC ACID] | No-Dili-Concern | 0
7 | CCCCCOc1ccc(-c2cc(-c3ccc(C(=O)N[C@H]4C[C@@H](O)[C@@H](O)NC(=O)[C@@H]5[C@@H](O)[C@@H](C)CN5C(=O)[C@H]([C@H](O)CC(N)=O)NC(=O)[C@H]([C@H](O)[C@@H](O)c5ccc(O)c(OS(=O)(=O)O)c5)NC(=O)[C@@H]5C[C@@H](O)CN5C(=O)[C@H]([C@@H](C)O)NC4=O)cc3)no2)cc1 [MICAFUNGIN] (X1-[Orn(4R-OH,5R-OH)]T[Hyp][hTyr(3S-OH,4S-OH,3'-OSO3H)][Gln(3R-OH)][Pro(3S-OH,4S-Me)]; lactam 1-C) | Most-Dili-Concern | 7
8 | C[C@H](N[C@@H](CCc1ccccc1)C(=O)O)C(=O)N1CCC[C@H]1C(=O)O [ENALAPRILAT ANHYDROUS] | Ambiguous-Dili-Concern | 7
9 | CC(C)C[C@H](NC(=O)[C@@H](COC(C)(C)C)NC(=O)[C@H](Cc1ccc(O)cc1)NC(=O)[C@H](CO)NC(=O)[C@H](Cc1c[nH]c2ccccc12)NC(=O)[C@H](Cc1cnc[nH]1)NC(=O)[C@@H]1CCC(=O)N1)C(=O)N[C@@H](CCCNC(=N)N)C(=O)N1CCC[C@H]1C(=O)NNC(N)=O [GOSERELIN] | Ambiguous-Dili-Concern | 3
10 | CCCCCOC(=O)Nc1nc(=O)n([C@@H]2O[C@H](C)[C@@H](O)[C@H]2O)cc1F [CAPECITABINE] | Ambiguous-Dili-Concern | 2
11 | C=C[C@H]1C[N@@]2CC[C@H]1C[C@H]2[C@H](O)c1ccnc2ccc(OC)cc12 [QUININE] | Less-Dili-Concern | 3
12 | CC(=O)Nc1nnc(S(N)(=O)=O)s1 [ACETAZOLAMIDE] | Most-Dili-Concern | 8
13 | Cc1cn(-c2cc(NC(=O)c3ccc(C)c(Nc4nccc(-c5cccnc5)n4)c3)cc(C(F)(F)F)c2)cn1 [NILOTINIB] | Ambiguous-Dili-Concern | 4
14 | CC[C@@H]([C@H](C)O)n1ncn(-c2ccc(N3CCN(c4ccc(OC[C@@H]5CO[C@@](Cn6cncn6)(c6ccc(F)cc6F)C5)cc4)CC3)cc2)c1=O [POSACONAZOLE] | Ambiguous-Dili-Concern | 8
15 | GALLIUM NITRATE | Ambiguous-Dili-Concern | 3
16 | C[C@@H](O)[C@H]1C(=O)N2C(C(=O)O)=C(S[C@@H]3CN[C@H](C(=O)Nc4cccc(C(=O)O)c4)C3)[C@H](C)[C@H]12 | Ambiguous-Dili-Concern | 3
17 | CO[C@H]1/C=C/O[C@@]2(C)Oc3c(C)c(O)c4c(O)c(c5c(nc6cc(C)ccn65)c4c3C2=O)NC(=O)/C(C)=C\C=C\[C@H](C)[C@H](O)[C@@H](C)[C@@H](O)[C@@H](C)[C@H](OC(C)=O)[C@@H]1C [RIFAXIMIN] | Ambiguous-Dili-Concern | 7
18 | O=[N+]([O-])OCC(CO[N+](=O)[O-])O[N+](=O)[O-] [NITROGLYCERIN] | No-Dili-Concern | 0
19 | CC(NC(C)(C)C)C(=O)c1cccc(Cl)c1 (configuration not stated) [BUPROPION] | Less-Dili-Concern | 5
20 | COc1c(N2C[C@@H]3CCCN[C@@H]3C2)c(F)cc2c(=O)c(C(=O)O)cn(C3CC3)c12 [MOXIFLOXACIN] | Less-Dili-Concern | 8
21 | SECRETIN | No-Dili-Concern | 0
22 | CC1(C)S[C@@H]2[C@H](NC(=O)[C@H](N)c3ccccc3)C(=O)N2[C@H]1C(=O)O [AMPICILLIN] | Less-Dili-Concern | 3
23 | Nc1ccc(S(=O)(=O)Nc2ncccn2)cc1 [SULFADIAZINE] | Less-Dili-Concern | 3
24 | CC1=C(/C=C/C(C)=C/C=C/C(C)=C\C(=O)O)C(C)(C)CCC1 [ISOTRETINOIN] | Most-Dili-Concern | 5
25 | CN(CCOc1ccc(CC2SC(=O)NC2=O)cc1)c1ccccn1 (configuration not stated) [ROSIGLITAZONE] | Less-Dili-Concern | 3
26 | CCC1(C)CC(=O)NC1=O (configuration not stated) [ETHOSUXIMIDE] | Ambiguous-Dili-Concern | 3
